Active and inactive are the calls of the source. The rule behind the calls is not given here.
What was measured:
[1] = Cytotoxicity against Sprague-Dawley rat cardiac fibroblast incubated for 24 hrs by MTT assay; type: toxicity, cell-based, Fibroblast of cardiac tissue; settings: cardiac fibroblasts
[2] = molecular target: DCN1-like protein 2 (Homo sapiens, UniProt Q6PH85); test: Binding affinity to DCN2 (unknown origin) assessed as inhibitory constant
[3] = molecular target: T1, DCN1-like protein 3 (Homo sapiens, UniProt Q8IWE4); test: Binding affinity to DCN3 (unknown origin) assessed as inhibitory constant
T1 sequence (Q8IWE4 whole entry): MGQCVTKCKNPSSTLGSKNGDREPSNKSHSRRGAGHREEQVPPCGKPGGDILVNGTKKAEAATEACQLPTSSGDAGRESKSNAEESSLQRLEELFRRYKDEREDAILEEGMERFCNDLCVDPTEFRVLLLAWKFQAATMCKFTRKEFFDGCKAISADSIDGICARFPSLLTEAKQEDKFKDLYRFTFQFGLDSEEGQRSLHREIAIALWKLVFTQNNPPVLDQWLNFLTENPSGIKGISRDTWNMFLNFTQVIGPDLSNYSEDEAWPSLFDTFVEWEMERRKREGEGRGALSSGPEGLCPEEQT

[4] = molecular target: T2, DCN1-like protein 4 (Homo sapiens, UniProt Q92564); test: Binding affinity to DCN4 (unknown origin) assessed as inhibitory constant
T2 sequence (Q92564 whole entry): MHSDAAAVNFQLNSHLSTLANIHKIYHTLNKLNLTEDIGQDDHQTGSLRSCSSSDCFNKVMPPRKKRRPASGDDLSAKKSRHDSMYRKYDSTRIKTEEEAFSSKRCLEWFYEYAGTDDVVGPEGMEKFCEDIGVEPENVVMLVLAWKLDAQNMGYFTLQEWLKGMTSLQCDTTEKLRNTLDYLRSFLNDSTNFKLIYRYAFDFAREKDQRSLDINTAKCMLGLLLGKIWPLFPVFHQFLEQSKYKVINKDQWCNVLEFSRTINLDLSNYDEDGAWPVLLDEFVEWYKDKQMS

[5] = organism: Homo sapiens; test: Inhibition of NEDD8-UBC12 (unknown origin) interaction in presence of ATP at 100 uM by densitometry; settings: time 10.0 min
[6] = test system: Cardiac fibroblast; test: Inhibition of DCN1 in TGF-beta-treated Sprague-Dawley rat cardiac fibroblast assessed as inhibition of cell proliferation at 0.1 to 3 uM preincubated for 2 hrs followed by TGF-beta stimulation and further incubated for 24 hrs by MTT assay; type: cell-based; settings: dose 0.1-3 µM, time 26.0 hrs
[7] = test system: Cardiac fibroblast; test: Inhibition of DCN1 in Ang II-treated Sprague-Dawley rat cardiac fibroblast assessed as inhibited cell migration at 0.1 to 3 uM incubated for 24 hrs stained with crystal violet by transwell migration assay; type: cell-based; settings: Sprague-Dawle, dose 0.1-3 µM
[8] = test system: Fibroblast of cardiac tissue; test: Inhibition of differentiation of Ang II-induced mouse cardiac fibroblast to myofibroblast assessed as decrease in alpha-SMA expression levels at 1 uM preincubated for 2 hrs followed by Ang-II stimulation and further incubated for 24 hrs by immunofluorescence assay; type: functional, cell-based; settings: time 26.0 hrs
[9] = test system: Fibroblast of cardiac tissue; test: Reversal of Ang II-induced increase in collagen III secretion in mouse cardiac fibroblast at 1 uM preincubated for 2 hrs followed by Ang-II stimulation and further incubated for 24 hrs by western blot analysis; type: functional, cell-based; settings: time 26.0 hrs
[10] = test system: Fibroblast of cardiac tissue; test: Effect on Ang II-induced in Cul2 neddylation in mouse cardiac fibroblast at 1 uM preincubated for 2 hrs followed by Ang-II stimulation and further incubated for 24 hrs by western blot analysis; type: functional, cell-based; settings: time 26.0 hrs
[11] = test system: Fibroblast of cardiac tissue; test: Effect on Cul4A neddylation in mouse cardiac fibroblast at 1 uM preincubated for 2 hrs by Western blot analysis; type: functional, cell-based
[12] = test system: Fibroblast of cardiac tissue; test: Effect on Cul4B neddylation in mouse cardiac fibroblast at 1 uM preincubated for 2 hrs by Western blot analysis; type: functional, cell-based
[13] = test system: Fibroblast of cardiac tissue; test: Reversal of TGF-beta-induced increase in collagen I secretion in mouse cardiac fibroblast at 1 uM preincubated for 2 hrs followed by TGF-beta stimulation and further incubated for 24 hrs by Western blot analysis; type: functional, cell-based; settings: time 26.0 hrs
[14] = test system: Fibroblast of cardiac tissue; test: Antifibrotic effect in SD rat cardiac fibroblast transfected with DCN1 siRNA assessed as effect on collagen I expression at 1 uM preincubated for 2 hrs followed by Ang II-stimulation and further incubated for 24 hrs by western blot analysis; type: functional, cell-based; settings: time 26.0 hrs
[15] = Toxicity in 24 hr starved C57BL/6 mouse assessed as pathological change in liver at 2 g/Kg administered via gavage measured after 2 weeks by H and E staining based histopathological analysis; type: tissue-based; settings: in vivo, po, 2000 mg/kg
[16] = molecular target: DCN1-like protein 1 (Homo sapiens, UniProt Q96GG9)
Sequence of DCN1-like protein 1 (Q96GG9 whole entry, looked up): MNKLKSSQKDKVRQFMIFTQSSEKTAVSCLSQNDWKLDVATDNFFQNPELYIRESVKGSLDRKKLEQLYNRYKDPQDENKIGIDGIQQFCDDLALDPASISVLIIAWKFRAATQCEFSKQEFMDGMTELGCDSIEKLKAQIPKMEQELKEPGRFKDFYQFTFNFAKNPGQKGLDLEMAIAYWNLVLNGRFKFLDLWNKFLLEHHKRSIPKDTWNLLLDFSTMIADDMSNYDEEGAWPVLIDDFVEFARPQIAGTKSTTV
Description: Binding affinity to DCN1 (unknown origin) assessed as Gibbs free energy change by MM-PBSA method

Sequence of DCN1-like protein 2 (Q6PH85 whole entry): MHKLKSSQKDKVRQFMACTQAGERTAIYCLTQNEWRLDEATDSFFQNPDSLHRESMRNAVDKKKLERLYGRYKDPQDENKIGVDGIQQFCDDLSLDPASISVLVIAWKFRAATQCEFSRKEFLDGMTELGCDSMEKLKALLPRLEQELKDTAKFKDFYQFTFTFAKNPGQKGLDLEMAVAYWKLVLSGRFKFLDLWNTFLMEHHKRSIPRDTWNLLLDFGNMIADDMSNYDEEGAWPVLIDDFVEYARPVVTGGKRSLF

## COc1cc(-c2nc(SCc3ccc(Cl)cc3)nc(Sc3nnnn3C)c2C#N)cc(OC)c1OC
[1]
  IC50 at 24 h: 27.3 µM
[2]
  Ki: 18.8 µM
[3]
  Ki: 385 µM
[4]
  Ki: 22.4 µM
[5]
  inhibition: inactive
[6]
  inhibition: Dose-Dependent Effect
[7]
  inhibition: Active
[8]
  inhibition: Active
[9]
  Activity: Active
[10]
  Activity: Active
[11]
  Activity: Active
[12]
  Activity: Active
[13]
  Activity: Active
[14]
  inhibition: inactive
[15]
  Activity: Non-Toxic
[16]
  deltaG: -8.75 kcal/mol

Source: ChEMBL document CHEMBL5042502, “Discovery of Potent and Selective 2-(Benzylthio)pyrimidine-based DCN1-UBC12 Inhibitors for Anticardiac Fibrotic Effects” (J Med Chem, 2022)
